Test results: PMC12281424, “A Rac-specific competitive inhibitor of guanine nucleotide binding reduces metastasis in triple-negative breast cancer” (Cell Reports Medicine, 2025)

Columns and labels:
[1] = test system: RAC1-dependent membrane ruffle formation in NIH 3T3 cells; assay: EGF-induced membrane ruffle formation; type: cell-based; conditions: EGF 10 ng/mL, inhibitors added 1 h prior; read-out: IC50, inhibition of ruffles formation
Protocol: Figure 2 Identification of a new RAC1 inhibitor (A) Effect of A41 and NSC23766 on ruffle formation (white arrows) induced by EGF (10 ng/mL) in NIH 3T3 cells in serum-free culture medium (CTL). Inhibitors were added at indicated concentration 1 h prior to EGF stimulation. To assess cytoskeleton organization, cells were incubated with Alexa Fluor 488 phalloidin to visualize F-actin. Results shown are representative of 3 independent experiments. Corresponding concentration-response curves have been established by counting the percentages of cells with ruffles (scale bars: 10 μm). (B) Immunoblot analysis and associated quantification of RAC-GTP level and total RAC expression in NIH 3T3 cells stimulated by EGF (10 ng/mL, 5 min) and pre-incubated or not (−) with NSC23766, A41, or A415 at 10^−5 M for 1 h (∗∗∗p < 0.001 vs. controls without EGF stimulation, ^###p < 0.001 vs. controls with EGF stimulation) (N > 3). […] (D) Representative in vitro nucleotide exchange catalyzed by the DH-PH of TIAM (10 nM) measured by the binding of fluorescent mant-GTP (1 μM) to RAC1 (0.5 μM, preloaded with GDP) in the presence of indicated concentrations of A41 (out of N = 6). […] (E) Kobs and Kmax were determined in each condition (N = 6). […]
After indicated treatments, cells were fixed with 4% paraformaldehyde and permeabilized in PBS 0.5% Triton X-100. […] Cancer cells were detected with firefly luciferase antibody (ab21176, Abcam) (dilution 1/500) overnight at room temperature, followed by secondary Alexa 488-labeled anti-rabbit antibody (dilution 1/1000). […] After staining, cells were mounted in Prolong gold antifade reagent with DAPI and images were captured by a fluorescence microscope. […]
Supp. […] For each molecule, druglikeness has been assessed according to Lipinski’s rules: molecular weight (MW)<500; high lipophilicity (LogP<5); less than 5 hydrogen bond donors (HBD); less than 10 hydrogen bond acceptors (HBA). The log P was calculated by using OSIRIS – Data Warrior software. […] IC50 was determined experimentally from the inhibition

[2] = test system: GABAA, Flunitrazepam, Central; assay: Safety screen; type: binding, rat
Protocol: (§1) Blood cell counts, kinase profiler, safety screen, bacterial cytotoxicity, Ames, micronucleus assays were performed by the company Eurofins (France).

Transporter, Adenosine = assay: Safety screen; type: binding, guinea pig
Protocol: as §1

AMPKα2(h) = AMPKα2(h) (Homo sapiens, UniProt P54646); assay: Kinase Profiler; type: biochemical
Sequence of AMPKα2(h) (P54646 whole entry): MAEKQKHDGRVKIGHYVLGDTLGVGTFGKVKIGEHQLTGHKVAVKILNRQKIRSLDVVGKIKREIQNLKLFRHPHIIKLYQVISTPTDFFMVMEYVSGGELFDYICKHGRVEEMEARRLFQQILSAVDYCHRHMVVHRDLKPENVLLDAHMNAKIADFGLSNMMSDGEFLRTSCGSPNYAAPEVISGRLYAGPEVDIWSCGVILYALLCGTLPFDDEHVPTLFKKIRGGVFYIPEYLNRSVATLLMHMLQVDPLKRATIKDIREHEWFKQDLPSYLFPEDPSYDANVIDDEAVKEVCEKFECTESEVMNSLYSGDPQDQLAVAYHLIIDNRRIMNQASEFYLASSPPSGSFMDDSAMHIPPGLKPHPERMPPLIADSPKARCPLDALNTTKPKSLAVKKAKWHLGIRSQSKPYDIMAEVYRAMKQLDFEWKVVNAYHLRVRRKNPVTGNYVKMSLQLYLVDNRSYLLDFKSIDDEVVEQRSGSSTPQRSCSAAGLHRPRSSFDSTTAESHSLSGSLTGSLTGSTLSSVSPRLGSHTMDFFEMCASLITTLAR
Sequence of AMPKα2(h) (Q9Y478 whole entry partner): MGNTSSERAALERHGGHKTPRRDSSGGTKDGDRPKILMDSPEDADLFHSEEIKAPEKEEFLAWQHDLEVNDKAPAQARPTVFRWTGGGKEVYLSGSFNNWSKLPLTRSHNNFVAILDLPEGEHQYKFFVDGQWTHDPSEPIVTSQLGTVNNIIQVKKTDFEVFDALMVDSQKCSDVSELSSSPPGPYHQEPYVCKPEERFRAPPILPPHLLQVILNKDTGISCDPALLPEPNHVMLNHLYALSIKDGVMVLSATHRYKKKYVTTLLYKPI
Sequence of AMPKα2(h) (P54619 whole entry partner): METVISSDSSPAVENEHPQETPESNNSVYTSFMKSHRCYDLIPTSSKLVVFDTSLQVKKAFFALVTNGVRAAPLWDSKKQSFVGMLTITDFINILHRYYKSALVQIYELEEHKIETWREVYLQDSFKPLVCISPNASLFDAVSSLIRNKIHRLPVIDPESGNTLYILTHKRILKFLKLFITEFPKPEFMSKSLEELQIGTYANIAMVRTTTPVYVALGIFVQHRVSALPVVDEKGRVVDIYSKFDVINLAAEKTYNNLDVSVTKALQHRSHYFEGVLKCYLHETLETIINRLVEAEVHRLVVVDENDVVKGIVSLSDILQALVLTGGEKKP
Protocol: (§2) Blood cell counts, kinase profiler, safety screen, bacterial cytotoxicity, Ames, micronucleus assays were performed by the company Eurofins (France). The kinase profiler was performed by the company Eurofins (Discovery, Panlab and Cerep).

CaMKIIα(h) = CaMKIIα(h) (Homo sapiens, UniProt Q9UQM7); assay: Kinase Profiler; type: biochemical
Protocol: (§3) The kinase profiler was performed by the company Eurofins (Discovery, Panlab and Cerep).

CDK12/cyclinK(h) = CDK12/cyclinK(h) (Homo sapiens, UniProt Q9NYV4); assay: Kinase Profiler; type: biochemical
Protocol: as §2

CK2α2(h) = CK2α2(h) (Homo sapiens, UniProt P19784); assay: Kinase Profiler; type: biochemical
Sequence of CK2α2(h) (P19784 whole entry): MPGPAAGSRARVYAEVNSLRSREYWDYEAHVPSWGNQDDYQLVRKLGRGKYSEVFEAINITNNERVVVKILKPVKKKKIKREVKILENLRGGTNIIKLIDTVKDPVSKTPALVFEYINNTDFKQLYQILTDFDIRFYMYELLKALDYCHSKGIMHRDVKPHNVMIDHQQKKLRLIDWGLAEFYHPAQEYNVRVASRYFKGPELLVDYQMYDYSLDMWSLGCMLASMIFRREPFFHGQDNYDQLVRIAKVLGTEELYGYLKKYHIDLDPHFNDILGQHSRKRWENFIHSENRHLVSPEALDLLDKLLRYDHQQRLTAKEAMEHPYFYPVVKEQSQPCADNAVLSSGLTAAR
Protocol: as §3

cKit(D816H)(h) = cKit(D816H)(h) (Homo sapiens, UniProt P10721, D816H); assay: Kinase Profiler; type: biochemical
Sequence of cKit(D816H)(h) (P10721 26-976 D816H): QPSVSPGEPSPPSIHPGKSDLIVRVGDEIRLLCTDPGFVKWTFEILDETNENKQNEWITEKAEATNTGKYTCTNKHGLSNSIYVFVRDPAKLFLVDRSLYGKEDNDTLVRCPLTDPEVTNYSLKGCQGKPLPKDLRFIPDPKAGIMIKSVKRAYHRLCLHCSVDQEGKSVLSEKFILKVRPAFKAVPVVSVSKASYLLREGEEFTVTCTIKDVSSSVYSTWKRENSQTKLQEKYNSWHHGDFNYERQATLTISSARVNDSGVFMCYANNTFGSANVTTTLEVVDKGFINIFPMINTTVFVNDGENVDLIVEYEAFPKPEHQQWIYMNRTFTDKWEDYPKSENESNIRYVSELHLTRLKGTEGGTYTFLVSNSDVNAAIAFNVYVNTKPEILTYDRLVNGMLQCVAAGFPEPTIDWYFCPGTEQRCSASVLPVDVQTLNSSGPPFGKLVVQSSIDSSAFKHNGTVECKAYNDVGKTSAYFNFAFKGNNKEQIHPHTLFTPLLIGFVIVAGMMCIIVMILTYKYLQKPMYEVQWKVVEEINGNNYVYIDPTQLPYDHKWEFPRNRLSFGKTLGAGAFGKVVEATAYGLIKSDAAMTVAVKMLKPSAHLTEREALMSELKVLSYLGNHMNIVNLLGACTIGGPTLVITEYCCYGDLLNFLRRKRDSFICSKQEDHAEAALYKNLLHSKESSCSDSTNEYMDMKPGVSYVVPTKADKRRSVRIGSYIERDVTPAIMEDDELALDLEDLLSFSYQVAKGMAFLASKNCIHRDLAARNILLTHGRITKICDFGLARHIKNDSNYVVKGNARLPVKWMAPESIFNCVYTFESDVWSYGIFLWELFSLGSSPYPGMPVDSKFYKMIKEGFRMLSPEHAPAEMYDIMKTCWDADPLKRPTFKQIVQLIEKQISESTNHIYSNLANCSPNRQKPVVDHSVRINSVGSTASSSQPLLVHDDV
Protocol: as §2

EphA5(h) = EphA5(h) (Homo sapiens, UniProt P54756); assay: Kinase Profiler; type: biochemical
Sequence of EphA5(h) (P54756 25-1037): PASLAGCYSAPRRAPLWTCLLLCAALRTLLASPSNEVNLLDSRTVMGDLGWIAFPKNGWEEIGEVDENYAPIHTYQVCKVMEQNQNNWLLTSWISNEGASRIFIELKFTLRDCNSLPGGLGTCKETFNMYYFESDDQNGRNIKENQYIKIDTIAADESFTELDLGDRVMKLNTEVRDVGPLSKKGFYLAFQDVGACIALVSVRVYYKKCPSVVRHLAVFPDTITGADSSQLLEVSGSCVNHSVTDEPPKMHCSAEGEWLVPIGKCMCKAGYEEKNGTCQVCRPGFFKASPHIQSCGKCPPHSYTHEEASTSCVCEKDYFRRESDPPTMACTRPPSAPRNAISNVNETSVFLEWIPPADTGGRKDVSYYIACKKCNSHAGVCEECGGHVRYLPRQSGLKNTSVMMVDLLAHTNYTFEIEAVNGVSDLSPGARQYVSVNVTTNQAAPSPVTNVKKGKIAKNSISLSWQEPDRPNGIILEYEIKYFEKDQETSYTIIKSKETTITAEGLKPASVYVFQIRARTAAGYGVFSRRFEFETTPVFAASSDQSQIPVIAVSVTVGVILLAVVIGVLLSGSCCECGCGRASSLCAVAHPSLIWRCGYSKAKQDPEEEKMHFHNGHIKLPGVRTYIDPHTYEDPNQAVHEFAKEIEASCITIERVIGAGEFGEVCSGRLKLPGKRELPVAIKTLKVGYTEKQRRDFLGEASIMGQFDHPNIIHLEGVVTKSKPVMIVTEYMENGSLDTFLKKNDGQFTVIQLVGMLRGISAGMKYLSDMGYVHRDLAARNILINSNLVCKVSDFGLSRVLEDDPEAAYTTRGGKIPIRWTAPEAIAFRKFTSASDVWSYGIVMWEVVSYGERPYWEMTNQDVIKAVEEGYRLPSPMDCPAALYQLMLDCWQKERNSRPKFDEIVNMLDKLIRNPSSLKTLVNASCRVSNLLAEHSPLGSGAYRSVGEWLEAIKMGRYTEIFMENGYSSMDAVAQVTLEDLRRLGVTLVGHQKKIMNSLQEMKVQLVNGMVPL
Protocol: as §2

HIPK4(h) = HIPK4(h) (Homo sapiens, UniProt Q8NE63); assay: Kinase Profiler; type: biochemical
Protocol: as §3

JNK1α1(h) = JNK1α1(h) (Homo sapiens, UniProt P45983); assay: Kinase Profiler; type: biochemical
Protocol: as §3

PAK1(h) = PAK1(h) (Homo sapiens, UniProt Q13153); assay: Kinase Profiler; type: biochemical
Protocol: as §2

PKCδ(h) = PKCδ(h) (Homo sapiens, UniProt Q05655); assay: Kinase Profiler; type: biochemical
Protocol: as §3

STK25(h) = STK25(h) (Homo sapiens, UniProt O00506); assay: Kinase Profiler; type: biochemical
Sequence of STK25(h) (O00506 whole entry): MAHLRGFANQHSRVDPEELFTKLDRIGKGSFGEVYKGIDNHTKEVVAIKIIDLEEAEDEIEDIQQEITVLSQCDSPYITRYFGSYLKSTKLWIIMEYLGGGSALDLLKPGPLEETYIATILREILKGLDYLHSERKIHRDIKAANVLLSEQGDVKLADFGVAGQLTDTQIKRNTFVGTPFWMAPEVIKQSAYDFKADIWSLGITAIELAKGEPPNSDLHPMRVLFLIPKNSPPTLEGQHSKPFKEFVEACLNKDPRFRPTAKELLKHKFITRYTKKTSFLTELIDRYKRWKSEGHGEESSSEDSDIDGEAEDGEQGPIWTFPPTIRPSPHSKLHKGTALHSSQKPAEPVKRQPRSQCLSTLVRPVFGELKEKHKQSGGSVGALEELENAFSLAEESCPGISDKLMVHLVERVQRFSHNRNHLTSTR
Protocol: as §3

Syk(h) = Syk(h) (Homo sapiens, UniProt P43405); assay: Kinase Profiler; type: biochemical
Protocol: as §3

Tie2(Y897S)(h) = Tie2(Y897S)(h) (Homo sapiens, UniProt Q02763, Y897S); assay: Kinase Profiler; type: biochemical
Sequence of Tie2(Y897S)(h) (Q02763 23-1124 Y897S): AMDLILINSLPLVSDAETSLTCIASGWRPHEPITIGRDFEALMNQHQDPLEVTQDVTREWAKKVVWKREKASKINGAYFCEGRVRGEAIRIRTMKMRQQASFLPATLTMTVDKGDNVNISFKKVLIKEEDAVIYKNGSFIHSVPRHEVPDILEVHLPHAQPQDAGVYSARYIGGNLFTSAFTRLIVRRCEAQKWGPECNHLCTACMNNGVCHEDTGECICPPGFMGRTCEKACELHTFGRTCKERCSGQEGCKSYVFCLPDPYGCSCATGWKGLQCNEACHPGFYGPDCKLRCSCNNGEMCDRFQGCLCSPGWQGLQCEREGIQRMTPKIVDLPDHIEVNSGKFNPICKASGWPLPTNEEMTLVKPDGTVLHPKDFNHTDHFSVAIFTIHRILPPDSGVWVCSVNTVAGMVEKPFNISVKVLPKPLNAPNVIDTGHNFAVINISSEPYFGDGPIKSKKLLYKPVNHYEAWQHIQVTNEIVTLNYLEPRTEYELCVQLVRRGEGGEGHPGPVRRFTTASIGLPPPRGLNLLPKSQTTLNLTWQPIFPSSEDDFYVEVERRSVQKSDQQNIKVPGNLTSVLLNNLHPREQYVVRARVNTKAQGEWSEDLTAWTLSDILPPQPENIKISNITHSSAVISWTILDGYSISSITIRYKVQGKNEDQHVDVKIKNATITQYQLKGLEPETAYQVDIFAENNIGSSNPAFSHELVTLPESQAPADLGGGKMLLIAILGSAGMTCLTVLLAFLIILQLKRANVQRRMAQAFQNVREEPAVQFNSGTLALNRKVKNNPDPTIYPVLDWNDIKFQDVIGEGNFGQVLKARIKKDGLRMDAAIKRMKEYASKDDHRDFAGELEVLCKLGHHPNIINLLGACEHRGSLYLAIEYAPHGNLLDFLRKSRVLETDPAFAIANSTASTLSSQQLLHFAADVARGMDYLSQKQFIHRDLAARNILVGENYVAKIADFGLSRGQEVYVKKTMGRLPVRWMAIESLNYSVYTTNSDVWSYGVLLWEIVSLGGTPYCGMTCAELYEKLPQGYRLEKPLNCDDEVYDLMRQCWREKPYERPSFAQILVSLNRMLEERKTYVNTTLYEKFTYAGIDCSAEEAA
Protocol: as §3

Wee1(h) = Wee1(h) (Homo sapiens, UniProt P30291); assay: Kinase Profiler; type: biochemical
Protocol: as §3

PI3KC2a(h) = PI3KC2a(h) (Homo sapiens, UniProt O00443); assay: Kinase Profiler; type: biochemical
Protocol: as §3

## COc1ccc(OC)c(NS(=O)(=O)c2ccc(NC(=O)CCSc3ccc(C)cc3)cc2)c1 [Compound A41]
[1]
  IC50: 2.5 nM
[2]
  % inh.: 15%
Transporter, Adenosine
  % inh.: 37%
AMPKα2(h)
  Activity(%): 111%
CaMKIIα(h)
  Activity(%): 99%
CDK12/cyclinK(h)
  Activity(%): 100%
CK2α2(h)
  Activity(%): 109%
cKit(D816H)(h)
  Activity(%): 109%
EphA5(h)
  Activity(%): 110%
HIPK4(h)
  Activity(%): 105%
JNK1α1(h)
  Activity(%): 94%
PAK1(h)
  Activity(%): 115%
PKCδ(h)
  Activity(%): 110%
STK25(h)
  Activity(%): 98%
Syk(h)
  Activity(%): 91%
Tie2(Y897S)(h)
  Activity(%): 109%
Wee1(h)
  Activity(%): 112%
PI3KC2a(h)
  Activity(%): 95%
